In general, Kd refers to the free concentration of one partner at which half of the binding sites on the other are occupied at equilibrium, for simple one-to-one binding. Lower therefore signals a tighter complex.

Molecules are shown by their SMILES. Read-outs that look alike come from different tables or passages of the source.

One assay deals with T1, FOLR2 (Homo sapiens, UniProt P14207).
T1 construct: purchased Acro Biosystems FO2-H5223-100 μg
As to the kind of experiment: SPR binding kinetics of compounds to folate receptor (FOLR2). The following applies: immobilized FOLR2, compound 3.125-100 nM. How it is done:
A Biacore 8K+ was used to measure the association and dissociation rates of example compounds to FOLR2 (Acro Biosystems, Cat: FO2-H5223-100 μg). Briefly, FOLR2 was reconstituted according to the manufacture's instructions to 200 μg/mL. Both the active and reference surfaces of a Cytiva CM5 Series S Sensor Chip were activated with a 1:1 mixture of 400 mM EDC and 100 mM NHS for 420 s at 10 μL/min. 25 μg/mL FOLR2 diluted in Sodium Acetate pH 5.5 was injected on the active channel (Flow Cell 2) for 420 s at 10p/min. Both the reference and active surfaces were then capped with 1M ethanolamine, pH 8.5 for 420 s, achieving an immobilization level of ˜4200 RU. Example compounds were serially diluted 1:1 in running buffer (10 mM HEPES, 150 mM NaCl, 0.05% T20, pH 7.5, 2% DMSO) from 100 nM to 3.125 nM and flowed over the active and reference surfaces for 120 s, and then allowed to dissociate in running buffer for 600 s, at 30 uL/min. The FOLR2 immobilized active surface and the reference surface were regenerated with a 30 s pulse of Sodium Acetate pH 5.5 at 30 μL/min. Sensorgrams were solvent corrected, double-referenced, and the data fitted and analyzed in Biacore Insight Evaluation Software Version 3.0.11.15423.
FIG. 1 illustrates the SPR sensorgrams for various concentrations of compound I-21 (3.125 nM to 100 nM) to folate receptor 2 (FOLR2), illustrating 1:1 binding.
(In general: In SPR one partner is held on a chip, and binding of the other changes the refractive index at the surface.)

Another assay has as its target T2, TNFα trimer (Homo sapiens, UniProt P01375).
T2 construct: Ligand MW (Da) 53729.8; fused on or other part: Three copies of soluble TNF-alpha joined by linkers into one polypeptide; The protein is biotinylated and captured on immobilised streptavidin
As to the kind of experiment: SPR binding kinetics of compounds to TNFα trimer (single-cycle kinetics). The following applies: for kon: read-out: ka. How it is done: Streptavidin 100 μg/mL Streptavidin (Invitrogen Cat #:434302) diluted in 10 mM sodium acetate, pH 4.5) was immobilized to both the reference and active surfaces as described in Example 51. The surfaces were conditioned with three injections of running Buffer (10 mM HEPES, 150 mM NaCl, 0.05% T20, pH 7.5, 2% DMSO) at a flow rate of 10 μL/min, Contact time: 60 s. Flow rate: 10 μL/min. The active surface was treated with biotinylated linked TNFα timer 20 μg/mL diluted in running buffer at a flow rate of 5 μL/min contact time: 600 s, yielding a final response of ˜3000 RU. Example compounds were then serially diluted 1:1 in running buffer (10 mM HEPES, 150 mM NaCl, 0.05% T20, pH 7.5, 2% DMSO) from 30 uM to 937.5 nM and flowed over the active and reference surfaces from lowest concentration to greatest concentration in the single-cycle kinetics format, and then allowed to dissociate in running buffer for 7200 s, at 30 μL/min. Sensorgrams were solvent corrected, double-referenced, and the data fitted and analyzed in Biacore Insight Evaluation Software Version 3.0.11.15423.

In assay [1] the target is T3, TNFα (Homo sapiens, UniProt P01375+P14207).
T3 construct: made in house
T3 sequence (P01375 77-233 limits assumed, species assumed): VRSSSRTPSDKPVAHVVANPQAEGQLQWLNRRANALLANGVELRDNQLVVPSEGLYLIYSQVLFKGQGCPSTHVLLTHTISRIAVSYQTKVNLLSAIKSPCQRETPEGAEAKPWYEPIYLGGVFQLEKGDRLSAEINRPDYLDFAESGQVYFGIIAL
T3 sequence (P14207 17-230 limits assumed, species assumed): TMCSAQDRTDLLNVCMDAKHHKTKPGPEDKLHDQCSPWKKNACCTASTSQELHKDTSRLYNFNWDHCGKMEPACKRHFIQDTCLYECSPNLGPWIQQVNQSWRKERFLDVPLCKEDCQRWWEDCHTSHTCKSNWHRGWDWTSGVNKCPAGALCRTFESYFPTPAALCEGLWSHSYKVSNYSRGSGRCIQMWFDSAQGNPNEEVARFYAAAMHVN
As to the kind of experiment: Compound mediated uptake of TNFα-pHrodo in THP-1 cells (flow cytometry). The assay is classed as cell-based. The conditions noted are these: 125 nM-20 μM, 24 hrs, FIG. 4. How it is done:
THP-1 cells, a monocytic leukemia cell line that endogenously express folate receptor beta, were used as a model system to measure example compound stimulated uptake of in-house produced TNFα conjugated to the pH sensitive fluorescent dye pHrodo green (ThermoFisher Scientific #P35369).
THP-1 cells were maintained in RPMI (Gibco #61870143) with 10% v/v FBS (VWR #89510-188) with 2 mM L-alanyl-L-glutamine dipeptide, 100 units/ml penicillin and 100 ug/ml streptomycin (Gibco #15140148). Cells were pelleted, resuspended in folate-free RPMI (Gibco #27016021) and seeded at 50,000 cells per well of a 96 well plate. Example compound was added to each well as a log 2 dilution series ranging from 20 μM to 125 nM final concentration. Cells were incubated for 24 hrs and washed/resuspended in phosphate buffered saline (pH 7.4) with 1% w/v BSA. Uptake was measured using a Novocyte Advanteon Flow Cytometer (Agilent Technologies) with the […] and FITC detection configuration.

Assay [2] deals with T3, TNFα. As to the kind of experiment: Compound mediated depletion of HiBiT-TNFα from the medium of THP-1 cells. The following applies: compound 10 μM, FIG. 6. The assay is classed as cell-based. The source says: An in-house recombinantly expressed and purified N-terminal fusion of HiBiT with TNFα was used to measure example compound-stimulated depletion from the media. HiBiT and largeBiT are split nanoluciferase polypeptides that result in complementation of luciferase activity in the presence of both polypeptides. The level of HiBit-TNFα in the media over time can be measure by sampling the media and mixing with the Nano-Glo HiBiT Extracellular Detection Reagent (Promega Corporation) containing the largeBiT polypeptide and nanoluciferase substrate.
THP-1 cells were seeded at 100,000 cells per well of 12 well plate with 1 mL RPMI+10% w/w FBS+1× penicillin/streptomycin and differentiated using 20 ng/mL phorbol myristate acetate (Sigma-Aldrich #P8139) for 72 hrs. After 72 hrs the growth medium was replaced with 1 ml RPMI+10% v/v FBS+1× penicillin/streptomycin containing 12.5 nM HiBit-TNFα. Where noted example compound was added at 10 μM final concentration. The medium was sampled (50 μl) at 0, 24, 48 and 96 hr and luciferase activity was measured using the Nano-Glo HiBiT Extracellular Detection Reagent.
On the technique in general: HiBiT is a short tag that completes a luciferase, so light tracks the accessible tagged protein.

Assay [3] addresses T3, TNFα. As to the kind of experiment: Compound mediated degradation of TNFα in THP-1 cells (pulse-chase, TNFα-biotin blot). The assay is classed as cell-based. The conditions noted are these: PMA differentiated THP-1 cells, compound 10 μM, FIG. 5. How it is done:
To measure degradation of internalized TNFα, a pulse-chase experiment was performed whereby cells were treated with +/− example compounds and/or +/− protease inhibitors and incubated for 1 hr in media containing TNFα-biotin to allow uptake and then washed and incubated 90 minutes in fresh media without TNFα to allow degradation. Samples were collected after the pulse phase (60 min) and chase phase (90 min) to measure uptake and degradation, respectively.
THP-1 cells were seeded at 100,000 cells per well of 12 well plate with 1 mL RPMI+10% w/w FBS+1× penicillin/streptomycin and differentiated using 20 ng/mL phorbol myristate acetate (Sigma-Aldrich #P8139) for 72 hrs. After 72 hrs media was replaced with 1 ml RPMI+10% v/v FBS+1× penicillin/streptomycin and TNFα-biotin (AcroBiosystems #50-201-9879) was added to 12.5 nM final concentration. Where noted example compound was added at 10 μM final concentration and protease inhibitors were added at 100 ug/ml final concentration for leupeptin (Sigma-Aldrich #L2884) or 1 μg/ml final concentration for pepstatin A (Sigma-Aldrich #BP26715). […] Relative quantification of bands was performed using the ImageLab software (BioRad) with endogenously biotinylated proteins serving as endogenous controls. […]

[4] abbreviates: SPR single cycle kinetics, immobilized TNFα trimer.
Setting [5] is: SPR single cycle kinetics, immobilized TNFα trimer, compound 937.5 nM-30 uM.

T2 sequence (P01375 88-233 limits assumed): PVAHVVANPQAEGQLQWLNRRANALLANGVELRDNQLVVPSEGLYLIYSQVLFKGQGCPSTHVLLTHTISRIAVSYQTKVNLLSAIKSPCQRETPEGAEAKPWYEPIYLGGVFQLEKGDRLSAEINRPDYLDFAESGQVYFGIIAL
T1 sequence (P14207 17-230): as the sequence (P14207 17-230 limits assumed, species assumed) above

Turning to `Cc1nc2cc(F)c(-c3cnc(OCCCCCn4cc(COCCOCCOCCOCCNC(=O)[C@H](CCC(=O)O)NC(=O)c5ccc(NCc6cnc7nc(N)nc(O)c7n6)cc5)nn4)nc3)nc2c(N[C@H](C)c2cc(C#N)ccc2F)c1Cl` [Compound I-21, (S)-16-(4-(((2-amino-4-hydroxypteridin-6-yl)methyl)amino)benzamido)-1-(1-(5-((5-(7-chloro-8-(((R)-1-(5-cyano-2-fluorophenyl)ethyl)amino)-3-fluoro-6-methyl-1,5-naphthyridin-2-yl)pyrimidin-2-yl)oxy)pentyl)-1H-1,2,3-triazol-4-yl)-15-oxo-2,5,8,11-tetraoxa-14-azanonadecan-19-oic acid], the Kd at FOLR2 was found to be 0.833 nM; at TNFα trimer (setting [4]), 80.5 nM. The kon on FOLR2 (read-out: ka) was determined as 5.57e+06 M⁻¹ s⁻¹; at TNFα trimer (setting [5]), 963 M⁻¹ s⁻¹.
On to `Nc1nc(O)c2nc(CNc3ccc(C(=O)N[C@@H](CCC(=O)NCCOCCOCCOCCOCc4cn(CCCCCOc5ccc(-c6ccc7nc(COc8cccc(N9CCCC9=O)c8)n(Cc8ccccc8OC(F)F)c7c6)cn5)nn4)C(=O)O)cc3)cnc2n1` [Compound I-25, (S)-18-(4-(((2-amino-4-hydroxypteridin-6-yl)methyl)amino)benzamido)-1-(1-(5-((5-(1-(2-(difluoromethoxy)benzyl)-2-((3-(2-oxopyrrolidin-1-yl)phenoxy)methyl)-1H-benzo[d]imidazol-6-yl)pyridin-2-yl)oxy)pentyl)-1H-1,2,3-triazol-4-yl)-15-oxo-2,5,8,11-tetraoxa-14-azanonadecan-19-oic acid], for which, on TNFα trimer (setting [4]), the Kd stood at 4.18 nM. On TNFα trimer (setting [5]), the kon was 874 M⁻¹ s⁻¹.
As for `Cc1nc2cc(F)c(-c3cnc(OCCCCCn4cc(COCCOCCNC(=O)CC[C@H](NC(=O)c5ccc(NCc6cnc7nc(N)nc(O)c7n6)cc5)C(=O)O)nn4)nc3)nc2c(N[C@H](C)c2cc(C#N)ccc2F)c1Cl` [Compound I-16, N2-(4-(((2-amino-4-hydroxypteridin-6-yl)methyl)amino)benzoyl)-N5-(2-(2-((1-(5-((5-(7-chloro-8-(((R)-1-(5-cyano-2-fluorophenyl)ethyl)amino)-3-fluoro-6-methyl-1,5-naphthyridin-2-yl)pyrimidin-2-yl)oxy)pentyl)-1H-1,2,3-triazol-4-yl)methoxy)ethoxy)ethyl)-L-glutamine], the “binding mode from SPR sensorgrams” value on TNFα trimer (FIGS. 2A-2C) is 1:1 binding. In addition, on TNFα trimer (setting [4]), binding was put at a Kd of 50.2 nM, the Rmax came to 43.7 RU and the kd is 5.81e-05 s⁻¹. For the same compound, the Stoichiometry on TNFα trimer (SPR, Rmax versus expected Rmax) worked out at 0.7. In addition, at TNFα trimer, the kon was 1160 M⁻¹ s⁻¹.
As to `Cc1nc2cc(F)c(-c3cnc(OCCCCCn4cc(COCCOCCOCCOCCNC(=O)CC[C@H](NC(=O)c5ccc(NCc6cnc7nc(N)nc(O)c7n6)cc5)C(=O)O)nn4)nc3)nc2c(N[C@H](C)c2cc(C#N)ccc2F)c1Cl` [Compound I-17, (S)-18-(4-(((2-amino-4-hydroxypteridin-6-yl)methyl)amino)benzamido)-1-(1-(5-((5-(7-chloro-8-(((R)-1-(5-cyano-2-fluorophenyl)ethyl)amino)-3-fluoro-6-methyl-1,5-naphthyridin-2-yl)pyrimidin-2-yl)oxy)pentyl)-1H-1,2,3-triazol-4-yl)-15-oxo-2,5,8,11-tetraoxa-14-azanonadecan-19-oic acid], the “uptake of labelled TNFα (median fluorescence intensity of pHrodo dye)” value on TNFα [1] was “stimulated uptake of labelled TNFα in THP-1 cells in a dose-dependent manner”. In addition, at TNFα [2] (first 24 hours), the “rate of depletion of HiBiT-TNFα from medium” value is “more rapid depletion of HiBiT-TNFα over the first 24 hours”. Besides, the “total depletion of HiBiT-TNFα from the culture medium” value at TNFα [2] (sampled to 96 hr) is given as “greater total depletion of HiBiT-TNFα from the culture medium”. Also, the “degradation and rescue of TNFα” value at TNFα [3] is “mediated degradation and rescue of TNFα”.

For the origin of these results see patent US20240165250A1, “Bifunctional Folate Receptor Binding Compounds” (Lycia Therapeutics, Inc., priority 2021, published 2024).
